Experimental data as given in US12138256B2, “Treatment of cardiopulmonary disorders” (Bayer Aktiengesellschaft, priority 2021, dated 2024).
Several values for one entry are separate records, joined by “and”; a condition that tells them apart may be missing. Equal values may be shown once.

Tested on: anesthetized PAH minipigs
Test: PAH minipig model: intratracheal application of dry powder formulations and different hydrates (PennCentury insufflator)
Assay type: in vivo, Göttingen minipig
Conditions: for PAP % changes vs. baseline: 375 μg/kg i.t., each animal; for BP / PAP: micronized 375 μg/kg intratracheal @90 min
Text: After characterization of the effects of comparative example 11 after nebulization of compound solutions, in a further step the effects of crystalline forms of comparative example 11, e.g. sesquihydrate, e.g. example 6e on PAP and BP after inhaled application of different dry powder lactose formulations (table C2.1.8) were studied in anesthetized PAH minipigs.
As reference pure Lactose vehicle was applied in the beginning of each experiment.

[1] = time not printed, 1st row after 310
[2] = time not printed, 2nd row after 310

O.O.O.O=C(O)c1ccc(CCN(CCc2ccccc2OCc2ccc(-c3ccc(C(F)(F)F)cc3)cc2Cl)[C@H]2CCCc3nc(C(=O)O)ccc32)cc1.O=C(O)c1ccc(CCN(CCc2ccccc2OCc2ccc(-c3ccc(C(F)(F)F)cc3)cc2Cl)[C@H]2CCCc3nc(C(=O)O)ccc32)cc1 [example 6e, (5S)-{[2-(4-Carboxyphenyl)ethyl][2-(2-{[3-chloro-4′-(trifluoromethyl)biphenyl-4-yl]methoxy}phenyl)-ethyl]amino}-5,6,7,8-tetrahydroquinoline-2-carboxylic acid sesquihydrate]
efficacy with regard to PAP reduction as well as systemic BP reduction (1.5 mg/4 kg (=375 μg/kg) intratracheally, micronized): comparable efficacy | effect on PAP and BP after i.t. application (lactose formulation I 7.5 μg/kg, II 22.5 μg/kg, micronized sesquihydrate 375 μg/kg, n=3): decrease of PAP without any effects on BP | time to maximum effect on PAP after i.t. application (lactose formulation I 7.5 μg/kg, lactose formulation II 22.5 μg/kg, micronized sesquihydrate 375 μg/kg): approximately 80 min | PAP % changes vs. baseline (time 80): 100.0% | PAP % changes vs. baseline (time 90, sesquihydrate): 98.9% and 103.6% and 99.8% | PAP % changes vs. baseline (time 100, sesquihydrate): 99.5% and 101.4% and 97.3% | PAP % changes vs. baseline (time 110, sesquihydrate): 89.3% and 98.7% and 86.8% | PAP % changes vs. baseline (time 120, sesquihydrate): 84.0% and 95.6% and 75.7% | PAP % changes vs. baseline (time 130, sesquihydrate): 78.9% and 93.7% and 70.2% | PAP % changes vs. baseline (time 140, sesquihydrate): 75.2% and 91.8% and 67.5% | PAP % changes vs. baseline (time 150, sesquihydrate): 74.0% and 76.0% and 65.4% | PAP % changes vs. baseline (time 160, sesquihydrate): 71.0% and 79.5% and 65.9% | PAP % changes vs. baseline (time 170, sesquihydrate): 68.5% and 74.3% and 61.5% | PAP % changes vs. baseline (time 180, sesquihydrate): 63.2% and 80.8% and 62.0% | PAP % changes vs. baseline (time 190, sesquihydrate): 61.5% and 80.8% and 58.6% | PAP % changes vs. baseline (time 200, sesquihydrate): 62.3% and 80.3% and 60.2% | PAP % changes vs. baseline (time 210, sesquihydrate): 61.0% and 80.7% and 59.4% | PAP % changes vs. baseline (time 220, sesquihydrate): 59.5% and 86.3% and 57.8% | PAP % changes vs. baseline (time 230, sesquihydrate): 58.6% and 82.6% and 57.8% | PAP % changes vs. baseline (time 240, sesquihydrate): 59.3% and 81.5% and 57.6% | PAP % changes vs. baseline (time 250, sesquihydrate): 59.3% and 82.2% and 56.1% | PAP % changes vs. baseline (time 260, sesquihydrate): 58.8% and 82.7% and 57.6% | PAP % changes vs. baseline (time 270, sesquihydrate): 59.9% and 78.3% and 55.4% | PAP % changes vs. baseline (time 280, sesquihydrate): 58.4% and 78.3% and 55.9% | PAP % changes vs. baseline (time 290, sesquihydrate): 57.4% and 79.6% and 53.9% | PAP % changes vs. baseline (time 300, sesquihydrate): 60.1% and 78.7% and 54.5% | PAP % changes vs. baseline (time 310, sesquihydrate): 58.4% and 77.6% and 53.7% | PAP % changes vs. baseline (time 320, sesquihydrate): 61.8% and 76.3% and 55.1% | PAP % changes vs. baseline (time 330, sesquihydrate): 61.3% and 74.8% and 53.0%

O.O.O.O=C(O)c1ccc(CCN(CCc2ccccc2OCc2ccc(-c3ccc(C(F)(F)F)cc3)cc2Cl)[C@H]2CCCc3nc(C(=O)O)ccc32)cc1.O=C(O)c1ccc(CCN(CCc2ccccc2OCc2ccc(-c3ccc(C(F)(F)F)cc3)cc2Cl)[C@H]2CCCc3nc(C(=O)O)ccc32)cc1 [sesquihydrate ex. 6e]
BP (time 100): 99 mmHg and 111 mmHg and 117 mmHg | PAP (time 100): 40.7 mmHg and 38.7 mmHg and 39.6 mmHg | BP (time 110): 101 mmHg and 112 mmHg and 116 mmHg | PAP (time 110): 36.5 mmHg and 37.6 mmHg and 35.4 mmHg | BP (time 120): 101 mmHg and 114 mmHg and 115 mmHg | PAP (time 120): 34.3 mmHg and 36.4 mmHg and 30.8 mmHg | BP (time 130): 101 mmHg and 114 mmHg and 115 mmHg | PAP (time 130): 32.3 mmHg and 35.7 mmHg and 28.6 mmHg | BP (time 140): 99 mmHg and 120 mmHg and 114 mmHg | PAP (time 140): 30.8 mmHg and 35.0 mmHg and 27.5 mmHg | BP (time 150): 99 mmHg and 121 mmHg and 114 mmHg | PAP (time 150): 30.3 mmHg and 29.0 mmHg and 26.6 mmHg | BP (time 160): 100 mmHg and 122 mmHg and 114 mmHg | PAP (time 160): 29.0 mmHg and 30.3 mmHg and 26.9 mmHg | BP (time 170): 101 mmHg and 121 mmHg and 115 mmHg | PAP (time 170): 28.0 mmHg and 28.3 mmHg and 25.1 mmHg | BP (time 180): 99 mmHg and 119 mmHg and 115 mmHg | PAP (time 180): 25.8 mmHg and 30.8 mmHg and 25.3 mmHg | BP (time 190): 99 mmHg and 123 mmHg and 114 mmHg | PAP (time 190): 25.1 mmHg and 30.8 mmHg and 23.9 mmHg | BP (time 200): 98 mmHg and 116 mmHg and 113 mmHg | PAP (time 200): 25.5 mmHg and 30.6 mmHg and 24.6 mmHg | BP (time 210): 99 mmHg and 117 mmHg and 116 mmHg | PAP (time 210): 25.0 mmHg and 30.8 mmHg and 24.2 mmHg | BP (time 220): 97 mmHg and 123 mmHg and 114 mmHg | PAP (time 220): 24.3 mmHg and 32.9 mmHg and 23.6 mmHg | BP (time 230): 97 mmHg and 119 mmHg and 114 mmHg | PAP (time 230): 24.0 mmHg and 31.5 mmHg and 23.6 mmHg | BP (time 240): 97 mmHg and 119 mmHg and 112 mmHg | PAP (time 240): 24.3 mmHg and 31.0 mmHg and 23.5 mmHg | BP (time 250): 97 mmHg and 118 mmHg and 111 mmHg | PAP (time 250): 24.2 mmHg and 31.3 mmHg and 22.9 mmHg | BP (time 260): 96 mmHg and 116 mmHg and 112 mmHg | PAP (time 260): 24.0 mmHg and 31.5 mmHg and 23.5 mmHg | BP (time 270): 99 mmHg and 115 mmHg and 109 mmHg | PAP (time 270): 24.5 mmHg and 29.8 mmHg and 22.6 mmHg | BP (time 280): 97 mmHg and 111 mmHg and 110 mmHg | PAP (time 280): 23.9 mmHg and 29.8 mmHg and 22.8 mmHg | BP (time 290): 97 mmHg and 110 mmHg and 107 mmHg | PAP (time 290): 23.5 mmHg and 30.3 mmHg and 22.0 mmHg | BP (time 300): 98 mmHg and 109 mmHg and 108 mmHg | PAP (time 300): 24.6 mmHg and 30.0 mmHg and 22.2 mmHg | BP (time 310): 97 mmHg and 109 mmHg and 105 mmHg | PAP (time 310): 23.9 mmHg and 29.6 mmHg and 21.9 mmHg | BP [1]: 94 mmHg and 108 mmHg and 105 mmHg | PAP [1]: 25.3 mmHg and 29.1 mmHg and 22.5 mmHg | BP [2]: 97 mmHg and 108 mmHg and 105 mmHg | PAP [2]: 25.1 mmHg and 28.5 mmHg and 21.6 mmHg
